Measurements: paper PMC9246773, “Assessing the Activity of Antimicrobial Peptides Against Common Marine Bacteria Located in Rotifer (Brachionus plicatilis) Cultures” (Probiotics and Antimicrobial Proteins, 2022)
No end group written: not given here.

Tests used:
Assay type in all cases: cell-based
[1] = tested on: Escherichia coli (ATCC 25922); conditions: ATCC 25922, 48 h
Procedure: (§1) A range of bacterial species with the potential to be transferred to developing fish larvae as pathogens or probiotics were selected for use in the study (Table 2). Bacterial isolates were stored at −80 °C and thawed, and 25 µL of the isolates was spread onto marine salt agar (MSA) media. All isolates were incubated at 25 °C for 18 h to reach mid-log growth phase. All isolates were sub-cultured and identified using mass spectrometry (MALDI-TOF) using the BioTyper and MBT 8468 library (Bruker Pty Ltd). The isolate Tenacibaculum discolor was plated on Anacker and Oradal’s marine (AOM) media, incubated for 48 h and identified using the aforementioned method. Bacterial isolates were suspended in sterile saline (0.75% NaCl w/v) to 0.5 McFarland standard. […] The bacterial isolates T. discolor and Pseudoalteromonas sp. require marine salts to grow and were not added to MHB (0‰). The isolate T. discolor requires low nutrients to grow, therefore, a separate MHB (25‰) was prepared at a diluted ratio of 1 part MHB and 7 parts artificial seawater (25‰).
(§2) The protocol was followed to determine the minimum inhibitory concentration (MIC) of the selected peptides. Two MIC assays were performed, firstly to determine whether each peptide precipitated in MHB and thereby required acetic acid adjustments (supplementary materials) and secondly, to determine the antimicrobial activity of each peptide in artificial seawater (25‰). Peptide stock solutions (1.3 mg mL^−1) were made by diluting the peptides in sterile deionised water. MHB was made with deionised water to reach a concentration of approaching 0‰ and artificial sea salts (Sigma-Aldrich® S9883) to reach a salinity of 25‰.
(§3) A broth microdilution protocol was followed to test whether the AMPs precipitated in MHB. The isolates T. discolor and Pseudoalteromonas were excluded from this assay because they required marine salts for growth. The peptides HHC10 and HHC36 previously required acetic acid adjustments according to [63] and were not trialled in this assay. To test if peptides required acetic acid, each peptide was diluted 1:2 in acetic acid (0.02% acetic acid w/v, containing 0.4% BSA) solution. In a 96-well polypropylene microtitre plates (Costar® 3879), 100 µL of this peptide stock was added to the first well for each bacterial isolate tested and serially diluted 2-fold with acetic acid (0.01% acetic acid w/v, containing 0.2% BSA). From each well, 10 µL of each peptide concentration was added to the corresponding wells of a new 96-well microtitre plate. From each of the bacterial suspensions in MHB (0‰), 90 µL was added to each well. […] From each of the bacterial suspensions in MHB (0‰), 50 µL was added to each well. All peptide concentrations ranged from 0.125 - 65µg mL^-1 and the bacterial suspension in each well was approximately 5 × 10^5 CFU mL^-1. Antimicrobial peptides that have an MIC value two or more dilutions higher in the assay with no acetic acid, compared to the assay with acetic acid, require acetic acid adjustments. The 96-well plates were incubated at 25 °C and read at 24 and 48 hours. The MIC was visually determined using a Sensititre™ Vizion™ Digital MIC Viewing System (Thermo Scientific™), and the lowest AMP concentration that had no bacterial growth was recorded as the MIC after 48 hours. Each bacterium was trialled in duplicate.

Shewanella sp. [2] = conditions: 48 h
Procedure: as §1, §2, §3

Vibrio alginolyticus [3] = conditions: 48 h
Procedure: as §1, §2, §3

[4] = tested on: Vibrio harveyi (ATCC 35084); conditions: ATCC 35084, 48 h
Procedure: as §1, §2, §3

Vibrio harveyi [5] = conditions: 48 h
Procedure: as §1, §2, §3

Vibrio rotiferianus [6] = conditions: 48 h
Procedure: as §1, §2, §3

Vibrio scophthalmi [7] = conditions: 48 h
Procedure: as §1, §2, §3

[8] = tested on: Escherichia coli (ATCC 25922); conditions: ATCC 25922, 48 h; remark: listed apart in the source
Procedure: as §1, §2
(§4) Once the acetic acid requirement for each peptide was determined (Table 3), the antimicrobial activity of each peptide was tested at a salinity of 0‰ and 25‰ for all bacterial isolates. A stock solution for peptides that required acetic acid was prepared by a 1:2 dilution in acetic acid (0.02% acetic acid w/v, containing 0.4% BSA) solution. In a 96-well polypropylene microtitre plates (Costar® 3879), 100 µL of this peptide stock was added to the first well for each bacterial isolate tested and serially diluted twofold with acetic acid (0.01% acetic acid w/v, containing 0.2% BSA). From each well, 10 µL of each peptide concentration was added to the corresponding wells of a new 96-well microtitre plate. From each of the bacterial suspensions (0‰), 90 µL was added to each well. […] Twofold serial dilutions were made with MHB (0‰). From each of the bacterial suspensions (0‰), 50 µL was added to each well. The same method was followed for testing peptides in MHB at 25‰. All peptide concentrations ranged from 0.125 to 65 µg mL^−1, and the bacterial suspension in each well was approximately 5 × 10^5 CFU mL^−1. The different salinities were used to compare any differences in antimicrobial activity in 0‰ and 25‰ water. […] Each bacterium was trialled in duplicate.

Pseudoalteromonas sp. = conditions: 48 h
Procedure: as §1, §2, §4

Shewanella sp. [9] = conditions: 48 h; remark: listed apart in the source
Procedure: as §1, §2, §4

Tenacibaculum discolor = conditions: 48 h
Procedure: as §1, §2, §4

Vibrio alginolyticus [10] = conditions: 48 h; remark: listed apart in the source
Procedure: as §1, §2, §4

[11] = tested on: Vibrio harveyi (ATCC 35084); conditions: ATCC 35084, 48 h; remark: listed apart in the source
Procedure: as §1, §2, §4

Vibrio harveyi [12] = conditions: 48 h; remark: listed apart in the source
Procedure: as §1, §2, §4

Vibrio rotiferianus [13] = conditions: 48 h; remark: listed apart in the source
Procedure: as §1, §2, §4

Vibrio scophthalmi [14] = conditions: 48 h; remark: listed apart in the source
Procedure: as §1, §2, §4

bacterial isolates [15] = conditions: 48 h
Procedure: as §1, §2, §4

bacterial isolates [16] = conditions: 48 h; remark: listed apart in the source
Procedure: as §1, §2
Once the acetic acid requirement for each peptide was determined (Table 3), the antimicrobial activity of each peptide was tested at a salinity of 0‰ and 25‰ for all bacterial isolates. A stock solution for peptides that required acetic acid was prepared by a 1:2 dilution in acetic acid (0.02% acetic acid w/v, containing 0.4% BSA) solution. In a 96-well polypropylene microtitre plates (Costar® 3879), 100 µL of this peptide stock was added to the first well for each bacterial isolate tested and serially diluted twofold with acetic acid (0.01% acetic acid w/v, containing 0.2% BSA). From each well, 10 µL of each peptide concentration was added to the corresponding wells of a new 96-well microtitre plate. From each of the bacterial suspensions (0‰), 90 µL was added to each well. […] Twofold serial dilutions were made with MHB (0‰). From each of the bacterial suspensions (0‰), 50 µL was added to each well. The same method was followed for testing peptides in MHB at 25‰. All peptide concentrations ranged from 0.125 to 65 µg mL^−1, and the bacterial suspension in each well was approximately 5 × 10^5 CFU mL^−1. […]

Substance | MIC E. coli ATCC 25922, Acetic [1] [µg/mL] | MIC E. coli ATCC 25922, No acetic [1] [µg/mL] | MIC Shewanella sp., Acetic (Shewanella sp. [2]) [µg/mL] | MIC Shewanella sp., No acetic (Shewanella sp. [2]) [µg/mL] | MIC V. alginolyticus, Acetic (Vibrio alginolyticus [3]) [µg/mL] | MIC V. alginolyticus, No acetic (Vibrio alginolyticus [3]) [µg/mL] | MIC V. harveyi ATCC 35084, Acetic [4] [µg/mL] | MIC V. harveyi ATCC 35084, No acetic [4] [µg/mL] | MIC V. harveyi, Acetic (Vibrio harveyi [5]) [µg/mL] | MIC V. harveyi, No acetic (Vibrio harveyi [5]) [µg/mL] | MIC V. rotiferianus, Acetic (Vibrio rotiferianus [6]) [µg/mL] | MIC V. rotiferianus, No acetic (Vibrio rotiferianus [6]) [µg/mL] | MIC V. scophthalmi, Acetic (Vibrio scophthalmi [7]) [µg/mL] | MIC V. scophthalmi, No acetic (Vibrio scophthalmi [7]) [µg/mL] | MIC E. coli ATCC 25922, salinity 0‰ [8] [µg/mL] | MIC E. coli ATCC 25922, salinity 25‰ [8] [µg/mL] | MIC Pseudoalteromonas sp., salinity 25‰ (Pseudoalteromonas sp.) [µg/mL] | MIC Shewanella sp., salinity 0‰ (Shewanella sp. [9]) [µg/mL] | MIC Shewanella sp., salinity 25‰ (Shewanella sp. [9]) [µg/mL] | MIC T. discolor, salinity 25‰ (Tenacibaculum discolor) [µg/mL] | other results
KKWQLLIKWKLR-NH2 [Peptide 3008] | > 65 | > 65 | 8.13 | 16.25 | 1.02 | 2.03 | 16.25 | 16.25 | 4.06 | 4.06 | 2.03 | 1.02 | 0.51 | 1.02 | 8.13 | > 65 | > 65 | 16.25 | 32.5 | > 65 | MIC V. alginolyticus, salinity 0‰ (Vibrio alginolyticus [10]): 2.03 µg/mL; MIC V. alginolyticus, salinity 25‰ (Vibrio alginolyticus [10]): > 65 µg/mL; MIC V. harveyi ATCC 35084, salinity 0‰ [11]: 8.13 µg/mL; MIC V. harveyi ATCC 35084, salinity 25‰ [11]: > 65 µg/mL; MIC V. harveyi, salinity 0‰ (Vibrio harveyi [12]): 4.06 µg/mL; MIC V. harveyi, salinity 25‰ (Vibrio harveyi [12]): > 65 µg/mL; MIC V. rotiferianus, salinity 0‰ (Vibrio rotiferianus [13]): 2.03 µg/mL; MIC V. rotiferianus, salinity 25‰ (Vibrio rotiferianus [13]): > 65 µg/mL; MIC V. scophthalmi, salinity 0‰ (Vibrio scophthalmi [14]): < 0.13 µg/mL; MIC V. scophthalmi, salinity 25‰ (Vibrio scophthalmi [14]): 32.5 µg/mL; MIC in artificial seawater (25‰) (over the bacterial isolates) (bacterial isolates [15]): 32.5 µg/mL
ILVRWIRWRIQW-NH2 [Peptide 3002] | 8.13 | 16.25 | 8.13 | 4.06 | 4.06 | 2.03 | 4.06 | 2.03 | 4.06 | 2.03 | 4.06 | 2.03 | 1.02 | 0.51 | 65 | > 65 | 65 | 8.13 | > 65 | 32.5 | MIC in low salt conditions (over the bacterial isolates) (bacterial isolates [16]): 1 to 10 µg/mL; MIC V. alginolyticus, salinity 0‰ (Vibrio alginolyticus [10]): 8.13 µg/mL; MIC V. alginolyticus, salinity 25‰ (Vibrio alginolyticus [10]): > 65 µg/mL; MIC V. harveyi ATCC 35084, salinity 0‰ [11]: 8.13 µg/mL; MIC V. harveyi ATCC 35084, salinity 25‰ [11]: > 65 µg/mL; MIC V. harveyi, salinity 0‰ (Vibrio harveyi [12]): 8.13 µg/mL; MIC V. harveyi, salinity 25‰ (Vibrio harveyi [12]): > 65 µg/mL; MIC V. rotiferianus, salinity 0‰ (Vibrio rotiferianus [13]): 8.13 µg/mL; MIC V. rotiferianus, salinity 25‰ (Vibrio rotiferianus [13]): > 65 µg/mL; MIC V. scophthalmi, salinity 0‰ (Vibrio scophthalmi [14]): 2.03 µg/mL; MIC V. scophthalmi, salinity 25‰ (Vibrio scophthalmi [14]): > 65 µg/mL
WVGVIIKWGLKL-NH2 [Peptide 3018] | > 65 | 16.25 | 16.25 | 8.13 | 8.13 | 4.06 | 16.25 | 8.13 | 16.25 | 16.25 | 8.13 | 4.06 | 0.25 | 2.03 | 65 | > 65 | > 65 | 16.25 | > 65 | > 65 | MIC V. alginolyticus, salinity 0‰ (Vibrio alginolyticus [10]): 2.03 µg/mL; MIC V. alginolyticus, salinity 25‰ (Vibrio alginolyticus [10]): > 65 µg/mL; MIC V. harveyi ATCC 35084, salinity 0‰ [11]: 32.5 µg/mL; MIC V. harveyi ATCC 35084, salinity 25‰ [11]: > 65 µg/mL; MIC V. harveyi, salinity 0‰ (Vibrio harveyi [12]): 16.25 µg/mL; MIC V. harveyi, salinity 25‰ (Vibrio harveyi [12]): > 65 µg/mL; MIC V. rotiferianus, salinity 0‰ (Vibrio rotiferianus [13]): 8.13 µg/mL; MIC V. rotiferianus, salinity 25‰ (Vibrio rotiferianus [13]): > 65 µg/mL; MIC V. scophthalmi, salinity 0‰ (Vibrio scophthalmi [14]): 1.02 µg/mL; MIC V. scophthalmi, salinity 25‰ (Vibrio scophthalmi [14]): > 65 µg/mL
